Test results published in patent US20230258624A1, “Ex vivo tumour immune microenvironment model, a method for preserving a tumour-specific immune cell profile in an ex vivo tumour immune microenvironment model and use of nanofibrillar cellulose” (UPM-Kymmene Corporation, priority 2022, published 2023).

Tested on: PDECs
Assay: Cytokine profiling (ELISA) of PDEC growth media
Assay type: cell-based, human
Method: Media (1 ml) collected from NFC-grown PDECs or PBMCs at day 3 and day 7 timepoints was stored at −80° C. until the day of analysis. […] Cell and matrix debris were removed after thawing by centrifugation (10 min, 10 000 G, RT). Cytokines secreted to growth media were analyzed with R&D DuoSetELISA kits (IL2: DY202-05, IL-10: DY217B-05, TNF-α: DY210-05, IFN-γ: DY285B-05, IL-4: DY204-05, IL-6: DY206-05, IL-1β/IL1F2: DY201-05, LAP (TGF-β1): DY246-05) together with DuoSet Ancillary Reagent Kit 2 (DY008), according to manufacturer's protocol. Briefly, plates were coated with capture antibody overnight at RT, washed 3 times and blocked with 1% BSA in PBS for 1 hour. Samples diluted in growth media were added and incubated for 2 hours at RT. After 3 washes, detection antibody was added and incubated for 2 hours at RT. After washes, Streptavidin-HRP was added and incubated for 20 min at RT, protected from light. After washes, Substrate solution was added for 20 min, protected from light, after which the reaction was stopped with stop solution and absorbance was immediately determined using a microplate reader set to 450 nm, and 540 nm to subtract background (Omega Fluostar, BMG Labtech).

With O=C(O)CCCC[C@@H]1SC[C@@H]2NC(=O)N[C@@H]21 [biotin] the “amount of inflammatory cytokine IFN-γ” value (1 μM biotin added to PDEC growth media, NFC cultures) was “clearly decreased” and the “inflammatory cytokine secretion into the media” value (biotin added to growth media after functionalization of the matrix) was “clearly decreased”.
